# Tests used:
# plasma ChE = conditions: methomyl aerosol, male rats, repeated inhalation; cited from earlier work
# Alkaline phosphatase = assay: Serum alkaline phosphatase activity; format: in vivo, rat; conditions: for increase in serum alkaline phosphatase activity: 3 days
# Experimental: Adult male rats (weighing 200-230 g) were divided into four groups of six animals each. Group 1 received an equivalent amount of saline and served as control. Animals from group 2, 3, and 4 were given methomyl 1, 2, and 4 mg/kg body weight i.p. respectively, between 8: 00 a.m. and 9:00 a.m., for three consecutive days. In the second set of experiments, adult male rats were divided into four groups. Animals from group 2, 3, and 4 were injected with 4 mg/kg body weight methomyl for one, three, and five successive days. The volume injected into the rats of body weight 200 g was 1 ml. In another experiment, adult female rats and old male rats (weighing 350-450 g, 8 months old) were divided into two groups of six animals each. […]
# Alanine aminotransferase and aspartate aminotransferase activity was measured using the Reitman and Frankel[12] method. Alkaline phosphatase activity was measured using Span diagnostic kits.[13] Cholinesterase activity was measured using the kinetic test method of Knedel et al.[14]
# Serum total protein = format: in vivo, rat; conditions: female rats; for Serum total protein: for 3 days; for decrease in total protein content: 3 days
smiles,measurement,setting,value
"CNC(=O)ON=C(C)SC [methomyl, S-methyl-N-(methyl carbomyl)-thioacetimidate]",effect on plasma ChE,plasma ChE,marked suppression
same,Alkaline phosphatase,"Alkaline phosphatase; female rats, 1 mg/kg body weight i.p., for 3 days",19.0 KA units
same,increase in serum alkaline phosphatase activity,"Alkaline phosphatase; female rats, 1 mg/kg i.p.",33%
same,Alkaline phosphatase,"Alkaline phosphatase; female rats, 2 mg/kg body weight i.p., for 3 days",23.0 KA units
same,increase in serum alkaline phosphatase activity,"Alkaline phosphatase; female rats, 2 mg/kg i.p.",61%
same,Alkaline phosphatase,"Alkaline phosphatase; female rats, 4 mg/kg body weight i.p., for 3 days",26.7 KA units
same,increase in serum alkaline phosphatase activity,"Alkaline phosphatase; female rats, 4 mg/kg i.p.",87%
same,Alkaline phosphatase,"Alkaline phosphatase; male rats, 1 mg/kg body weight i.p., for three days",23.4 KA units
same,increase in serum alkaline phosphatase activity,"Alkaline phosphatase; male rats, 1 mg/kg i.p.",14%
same,Alkaline phosphatase,"Alkaline phosphatase; male rats, 2 mg/kg body weight i.p., for three days",26.4 KA units
same,increase in serum alkaline phosphatase activity,"Alkaline phosphatase; male rats, 2 mg/kg i.p.",29%
same,Alkaline phosphatase,"Alkaline phosphatase; male rats, 4 mg/kg body weight i.p., for three days",28.6 KA units
same,increase in serum alkaline phosphatase activity,"Alkaline phosphatase; male rats, 4 mg/kg i.p.",39%
same,Serum total protein,Serum total protein; 1 mg/kg body weight i.p.,1.90 g/dL
same,decrease in total protein content,Serum total protein; 1 mg/kg i.p.,14%
same,Serum total protein,Serum total protein; 2 mg/kg body weight i.p.,1.96 g/dL
same,decrease in total protein content,Serum total protein; 2 mg/kg i.p.,11%

# From PMC2792609, “Effect of methomyl on hepatic mixed function oxidases in rats” (Indian Journal of Pharmacology, 2008)
